Data published in PMC3849131, “^18 F-click labeling and preclinical evaluation of a new ^18 F-folate for PET imaging” (EJNMMI Research, 2013).
Where two headings read alike, the source gives them in different places.

Columns and labels:
[1] = Relative lipophilicity (capacity factor k’) by reversed-phase HPLC; assay type: physicochemical; conditions: methanol-phosphoric acid buffer eluent, pH 2
Method: The relative lipophilicity of 6 was determined as capacity factor k’ (k’ = (tretention - tsolvent) / tsolvent) by reversed-phase HPLC using a methanol-phosphoric acid buffer eluent system at pH 2. […] This method has already been described elsewhere. The capacity factor k’ (k’ = (tretention - tsolvent) / tsolvent) was determined using reversed-phase HPLC and enables different (radio)folates to be compared based on their polarity. The values determined can be used to give hint to the in vivo behavior in terms of the degree of hepatobiliary excretion by comparison with literature examples.

folate receptor = biological target: T1, folate receptor (Homo sapiens, UniProt P15328); assay: Displacement assay with [^3H]folic acid on FR-positive human KB cells; assay type: binding
T1 construct: using [^3H]folic acid and human KB cells in cell suspension; endogenous in cells; host or cells: human KB cells
Method: FR-positive human KB cells were kept under folate-deficient conditions to adjust the folate concentration levels to that of the human serum.
Figure 1 Displacement assay. […] Experiments were conducted in triplicate (n = 3).

KB tumor-bearing mice = conditions: 45 min p.i., n = 4, cited from earlier work
[2] = reversed-phase HPLC; cited from earlier work

T1 sequence (P15328 25-257): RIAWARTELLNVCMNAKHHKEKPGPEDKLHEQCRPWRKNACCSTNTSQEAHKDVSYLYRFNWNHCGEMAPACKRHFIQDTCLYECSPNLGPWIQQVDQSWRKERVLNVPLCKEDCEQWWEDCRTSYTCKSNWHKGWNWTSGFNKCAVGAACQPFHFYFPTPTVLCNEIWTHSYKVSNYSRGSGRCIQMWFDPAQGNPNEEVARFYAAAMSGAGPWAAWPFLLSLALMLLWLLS

Nc1nc2ncc(CNc3ccc(C(=O)N[C@@H](CCC(=O)NCCOCCOCCOCCn4cc(COCCOCCOCCF)nn4)C(=O)O)cc3)nc2c(=O)[nH]1 [Compound 6]
capacity factor k’ [1]: 1.12 | IC50 (folate receptor): 3.1 nM | Ki (folate receptor): 1.6 nM

Nc1nc2ncc(CNc3ccc(C(=O)NC(CCC(=O)NCCCCn4cc(CCCC[18F])nn4)C(=O)O)cc3)nc2c(=O)[nH]1 (stereo not drawn) [^18 F-click folate]
Ratio of tumor to Kidney (KB tumor-bearing mice): 0.19 ± 1.38 | Ratio of tumor to Liver (KB tumor-bearing mice): 1.18 ± 0.69 | %ID/g Blood (KB tumor-bearing mice; Blood): 0.13 ± 0.01 %ID/g | %ID/g Bone (KB tumor-bearing mice; Bone): 0.13 ± 0.01 %ID/g | %ID/g Feces (KB tumor-bearing mice; Feces): 56.00 ± 27.64 %ID/g | %ID/g Gall bladder (KB tumor-bearing mice; Gall bladder): 667.4 ± 530.1 %ID/g | %ID/g Heart (KB tumor-bearing mice; Heart): 0.90 ± 0.22 %ID/g | %ID/g Intestines (empty) (KB tumor-bearing mice; Intestines (empty)): 19.59 ± 5.26 %ID/g | %ID/g Tumor (KB tumor-bearing mice; KB tumor): 3.13 ± 0.83 %ID/g | %ID/g Kidneys (KB tumor-bearing mice; Kidneys): 16.53 ± 2.22 %ID/g | %ID/g Liver (KB tumor-bearing mice; Liver): 1.71 ± 0.14 %ID/g | %ID/g Lung (KB tumor-bearing mice; Lung): 0.85 ± 0.04 %ID/g | %ID/g Spleen (KB tumor-bearing mice; Spleen): 0.33 ± 0.12 %ID/g | %ID/g Stomach (empty) (KB tumor-bearing mice; Stomach (empty)): 2.50 ± 0.6 %ID/g | capacity factor k’ [2]: 2.28
